Activity calls are given as the source filed them. No cut-off for these calls is given here.

In this test the target is Annexin A2/S100-A10 (Homo sapiens) (UniProt P07355+P60903). The experiment in a line: Inhibition of Annexin A2/Protein S100-A10 protein interaction in human MDA-MB-231 cells by Western blotting based immunoprecipitation assay. It is filed as cell-based. A general note: A western blot detects proteins with antibodies after separation by electrophoresis.
Sequence of Annexin A2/S100-A10 (Homo sapiens) (P07355 2-339 limits assumed): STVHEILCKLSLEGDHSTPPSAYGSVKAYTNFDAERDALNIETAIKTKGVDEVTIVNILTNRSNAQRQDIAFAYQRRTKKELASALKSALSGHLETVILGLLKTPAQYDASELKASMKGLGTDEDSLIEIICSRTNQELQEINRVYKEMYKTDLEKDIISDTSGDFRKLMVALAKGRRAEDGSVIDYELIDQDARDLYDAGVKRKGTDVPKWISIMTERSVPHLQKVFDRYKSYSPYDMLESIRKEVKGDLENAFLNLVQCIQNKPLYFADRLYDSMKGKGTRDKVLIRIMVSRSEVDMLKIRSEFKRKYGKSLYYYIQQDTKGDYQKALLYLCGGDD
Sequence of Annexin A2/S100-A10 (Homo sapiens) (P60903 whole entry partner): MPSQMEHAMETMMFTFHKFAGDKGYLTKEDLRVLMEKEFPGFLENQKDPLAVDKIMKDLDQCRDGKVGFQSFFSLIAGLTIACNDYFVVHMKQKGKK

With `Cc1cc(C)nc(SCc2nnc(SCC(=O)Nc3ccc(C(C)C)cc3)n2Cc2ccco2)n1`, the inhibition result is “Active”.

With Ac-MSTVHEILCKLSLE-OH, the inhibition entry was “Active”.

Source of the values: ChEMBL document CHEMBL3352440, “Design, synthesis and SAR exploration of tri-substituted 1,2,4-triazoles as inhibitors of the annexin A2-S100A10 protein interaction” (Bioorg Med Chem, 2014).
